Data published in patent US12509452B2, “Substituted-isoxazoline-containing aromatic compound, preparation method therefor, herbicidal composition and use thereof” (QINGDAO KINGAGROOT CHEMICAL COMPOUND CO., LTD., priority 2019, dated 2025).

How the values were obtained:
Experiment in all cases: weeding effect in post-emergence stage
Assay type in all cases: in vivo
Conditions in all cases: dose 15 g a.i./ha
[1] = system: Beckmannia syzigachne
Outline: (§1)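 Post-emergence spray-tower application at 500, 250, 125, 60, 15 or 7.5 g a.i./ha, formulated in acetone with Tween 80 and 1.5 L/ha methyl oleate synergist, to pot-grown plants at the 2-3 leaf stage. After 3 weeks in the greenhouse, fresh-weight control rate graded levels 0-5; three replicates averaged.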

[2] = system: Rorippa indica
Outline: as §1

[3] = system: Conyza japonica
Outline: as §1

[4] = system: Alopecurus japonicus
Outline: as §1

SMILES | weeding effect in post-emergence stage, Beckmannia syzigachne (activity level) [1] | weeding effect in post-emergence stage, Rorippa indica (activity level) [2] | weeding effect in post-emergence stage, Conyza japonica (activity level) [3] | weeding effect in post-emergence stage, Alopecurus japonicus (activity level) [4]
CCOC(=O)[C@]1(CC)CC(c2cc(-n3c(=O)cc(C(F)(F)F)n(C)c3=S)c(F)cc2Cl)=NO1 [229(S)] | 5 (Level 5: growth control rate is above 85%) | 5 (Level 5: growth control rate is above 85%) | 5 (Level 5: growth control rate is above 85%) | 5 (Level 5: growth control rate is above 85%)
CCOC(=O)C1(C)CC(c2cc(-n3c(=O)cc(C(F)(F)F)n(C)c3=O)c(F)cc2Cl)=NO1 (centres unmarked) [Compound 1-9] | 5 (Level 5: growth control rate is above 85%) | 5 (Level 5: growth control rate is above 85%) | 5 (Level 5: growth control rate is above 85%) | 5 (Level 5: growth control rate is above 85%)
CCOC(=O)CCC1(C)CC(c2cc(-n3c(=O)cc(C(F)(F)F)n(C)c3=O)c(F)cc2Cl)=NO1 (centres unmarked) [Compound 1-37] | 5 (Level 5: growth control rate is above 85%) | 5 (Level 5: growth control rate is above 85%) | 5 (Level 5: growth control rate is above 85%) | 5 (Level 5: growth control rate is above 85%)
CCOC(=O)CCCC1(C)CC(c2cc(-n3c(=O)cc(C(F)(F)F)n(C)c3=O)c(F)cc2Cl)=NO1 (centres unmarked) [Compound 1-39] | 5 (Level 5: growth control rate is above 85%) | 5 (Level 5: growth control rate is above 85%) | 5 (Level 5: growth control rate is above 85%) | 5 (Level 5: growth control rate is above 85%)
COC(=O)C1(C)CC(c2cc(-n3c(=O)n(C)c(=S)n(C)c3=O)c(F)cc2Cl)=NO1 (centres unmarked) [Compound 1-60] | 5 (Level 5: growth control rate is above 85%) | 5 (Level 5: growth control rate is above 85%) | 5 (Level 5: growth control rate is above 85%) | 5 (Level 5: growth control rate is above 85%)
CCOC(=O)C1(C)CC(c2cc(-n3c(=O)n(C)c(=S)n(C)c3=O)c(Cl)cc2Cl)=NO1 (centres unmarked) [Compound 1-61] | 5 (Level 5: growth control rate is above 85%) | 5 (Level 5: growth control rate is above 85%) | 5 (Level 5: growth control rate is above 85%) | 5 (Level 5: growth control rate is above 85%)
CCOC(=O)[C@]1(C)CC(c2cc(-n3c(=O)n(C)c(=S)n(C)c3=O)c(F)cc2Cl)=NO1 [Compound 1-62] | 5 (Level 5: growth control rate is above 85%) | 5 (Level 5: growth control rate is above 85%) | 5 (Level 5: growth control rate is above 85%) | 5 (Level 5: growth control rate is above 85%)
CCOC(=O)C1(C)CC(c2cc(-n3c(=O)n(CC)c(=S)n(CC)c3=O)c(F)cc2Cl)=NO1 (centres unmarked) [Compound 1-64] | 5 (Level 5: growth control rate is above 85%) | 5 (Level 5: growth control rate is above 85%) | 5 (Level 5: growth control rate is above 85%) | 5 (Level 5: growth control rate is above 85%)
CCOC(=O)C1(C)CC(c2cc(-n3c(=O)n(C(C)C)c(=S)n(C(C)C)c3=O)c(F)cc2Cl)=NO1 (centres unmarked) [Compound 1-65] | 5 (Level 5: growth control rate is above 85%) | 5 (Level 5: growth control rate is above 85%) | 5 (Level 5: growth control rate is above 85%) | 5 (Level 5: growth control rate is above 85%)
CCOC(=O)C1(C)CC(c2cc(-n3c(=O)n(C4CC4)c(=S)n(C4CC4)c3=O)c(F)cc2Cl)=NO1 (centres unmarked) [Compound 1-66] | 5 (Level 5: growth control rate is above 85%) | 5 (Level 5: growth control rate is above 85%) | 5 (Level 5: growth control rate is above 85%) | 5 (Level 5: growth control rate is above 85%)
CCOC(=O)C1(C)CC(c2cc(-n3c(=O)n(C)c(=S)n(C)c3=O)c(F)cc2C(F)(F)F)=NO1 (centres unmarked) [Compound 1-67] | 5 (Level 5: growth control rate is above 85%) | 5 (Level 5: growth control rate is above 85%) | 5 (Level 5: growth control rate is above 85%) | 5 (Level 5: growth control rate is above 85%)
CCOC(=O)C1(C)CC(c2cc(-n3c(=O)n(C)c(=S)n(C)c3=O)c(F)cc2C#N)=NO1 (centres unmarked) [Compound 1-69] | 5 (Level 5: growth control rate is above 85%) | 5 (Level 5: growth control rate is above 85%) | 5 (Level 5: growth control rate is above 85%) | 5 (Level 5: growth control rate is above 85%)
CCCOC(=O)C1(C)CC(c2cc(-n3c(=O)n(C)c(=S)n(C)c3=O)c(F)cc2Cl)=NO1 (centres unmarked) [Compound 1-70] | 5 (Level 5: growth control rate is above 85%) | 5 (Level 5: growth control rate is above 85%) | 5 (Level 5: growth control rate is above 85%) | 5 (Level 5: growth control rate is above 85%)
CC(C)OC(=O)C1(C)CC(c2cc(-n3c(=O)n(C)c(=S)n(C)c3=O)c(F)cc2Cl)=NO1 (centres unmarked) [Compound 1-71] | 5 (Level 5: growth control rate is above 85%) | 5 (Level 5: growth control rate is above 85%) | 5 (Level 5: growth control rate is above 85%) | 5 (Level 5: growth control rate is above 85%)
CCCCOC(=O)C1(C)CC(c2cc(-n3c(=O)n(C)c(=S)n(C)c3=O)c(F)cc2Cl)=NO1 (centres unmarked) [Compound 1-72] | 5 (Level 5: growth control rate is above 85%) | 5 (Level 5: growth control rate is above 85%) | 5 (Level 5: growth control rate is above 85%) | 5 (Level 5: growth control rate is above 85%)
CC(C)COC(=O)C1(C)CC(c2cc(-n3c(=O)n(C)c(=S)n(C)c3=O)c(F)cc2Cl)=NO1 (centres unmarked) [Compound 1-73] | 5 (Level 5: growth control rate is above 85%) | 5 (Level 5: growth control rate is above 85%) | 5 (Level 5: growth control rate is above 85%) | 5 (Level 5: growth control rate is above 85%)
Cn1c(=S)n(C)c(=O)n(-c2cc(C3=NOC(C)(C(=O)OC(C)(C)C)C3)c(Cl)cc2F)c1=O (centres unmarked) [Compound 1-74] | 5 (Level 5: growth control rate is above 85%) | 5 (Level 5: growth control rate is above 85%) | 5 (Level 5: growth control rate is above 85%) | 5 (Level 5: growth control rate is above 85%)
CCCCCCC(C)OC(=O)C1(C)CC(c2cc(-n3c(=O)n(C)c(=S)n(C)c3=O)c(F)cc2Cl)=NO1 (centres unmarked) [Compound 1-75] | 5 (Level 5: growth control rate is above 85%) | 5 (Level 5: growth control rate is above 85%) | 5 (Level 5: growth control rate is above 85%) | 5 (Level 5: growth control rate is above 85%)
C=CCOC(=O)C1(C)CC(c2cc(-n3c(=O)n(C)c(=S)n(C)c3=O)c(F)cc2Cl)=NO1 (centres unmarked) [Compound 1-76] | 5 (Level 5: growth control rate is above 85%) | 5 (Level 5: growth control rate is above 85%) | 5 (Level 5: growth control rate is above 85%) | 5 (Level 5: growth control rate is above 85%)
C#CCOC(=O)C1(C)CC(c2cc(-n3c(=O)n(C)c(=S)n(C)c3=O)c(F)cc2Cl)=NO1 (centres unmarked) [Compound 1-79] | 5 (Level 5: growth control rate is above 85%) | 5 (Level 5: growth control rate is above 85%) | 5 (Level 5: growth control rate is above 85%) | 5 (Level 5: growth control rate is above 85%)
